Data on four molecules can be found in ChEMBL document CHEMBL5543156, “Selective Elimination of Senescent Cancer Cells by Galacto-Modified PROTACs” (J Med Chem, 2024).

For orientation: IC50 means the concentration at which inhibition is half-maximal. Usually DC50 stands for the concentration at which degradation of the target reaches its halfway point. Read a high DC50 as degradation only at high concentration.

Calls of active or inactive are those of the source. The rule behind the calls is not given here.

The subject of data set [1] is KARPAS-299. In words: Antiproliferative activity against human normal (non-senescent) KARPAS-299 cells assessed as reduction in cell viability incubated for 72 hrs by CCK-8 assay. The format is functional, cell-based. As to conditions: KARPAS-299, 72 h. (Formazan colour is commonly taken as a measure of viable cells.)
Data set [2] deals with T1, NPM/ALK (Nucleophosmin/ALK tyrosine kinase receptor) (Homo sapiens) (UniProt Q9UM73+P06748). Nature of the data set: Induction of NPM-ALK degradation in human normal (non-senescent) KARPAS-299 cells at 1 uM incubated for 16 hrs by Western blot analysis. Type of data set: cell-based.
Data set [3] deals with T1, NPM/ALK (Nucleophosmin/ALK tyrosine kinase receptor) (Homo sapiens). Nature of the data set: Induction of NPM-ALK degradation in human senescent KARPAS-299 cells at 1 uM incubated for 16 hrs by Western blot analysis. The format is cell-based.
Data set [4] has as its system KARPAS-299. Nature of the data set: Antiproliferative activity against human senescent KARPAS-299 cells assessed as reduction in cell viability incubated for 72 hrs by CCK-8 assay. The format is functional, cell-based. Particulars: KARPAS-299, 72 h.
Data set [5] deals with KARPAS-299. Nature of the data set: Senolytic index, ratio of IC50 for antiproliferative activity against human normal (non-senescent) KARPAS-299 cells assessed as reduction in cell viability to IC50 for antiproliferative activity against human senescent KARPAS-299 cells assessed as reduction in cell viability. Type of data set: functional.
In data set [6] the test system is A549. In words: Antitumor activity against etoposide-induced human A549 cells xenografted in SCID mouse assessed as tumor growth inhibition at 20 mg/kg, sc administered daily for 19 days. As to conditions: time 19.0 day. Type of data set: functional, organism-based.
Data set [7] addresses T2, Bromodomain-containing protein 4 (Homo sapiens, UniProt O60885). Nature of the data set: Induction of BRD4 degradation in etoposide-induced human senescent HeLa cells by SA-beta-Gal staining assay. Type of data set: cell-based.
Data set [8] concerns A549. Nature of the data set: Antitumor activity against human A549 cells xenografted in SCID mouse assessed as reduction in ki67 level in tumor at 20 mg/kg, sc administered daily for 19 days in presence of etoposide by IHC analysis. As to conditions: time 19.0 day. Type of data set: functional, organism-based. Background: In xenograft studies the graft and the host belong to different species.

For data set [9], the system named is A549. Nature of the data set: Downregulation of BRD4 expression in etoposide-induced human senescent A549 cells at 50 nM incubated for 16 hrs by Proteomic analysis. The format is functional, cell-based.
For data set [10], the system named is A549. Nature of the data set: Induction of apoptosis in human normal (non-senescent) A549 cells assessed as necrotic cells at 1 uM incubated for 24 hrs by FITC/PI staining based flow cytometry analysis (reference value: 0.29%). The format is functional. For orientation: Flow cytometry measures light scatter and fluorescence of single cells or particles in a stream.

The target of data set [11] is T2, Bromodomain-containing protein 4. In words: Induction of BRD4 degradation in human HeLa cells by SA-beta-Gal staining assay. The format is cell-based.
Data set [12] relates to A549. In words: Induction of apoptosis in human normal (non-senescent) A549 cells assessed as early apoptotic cells at 1 uM incubated for 24 hrs by FITC/PI staining based flow cytometry analysis (reference value: 3.14%). Type of data set: functional.
Data set [13] relates to A549. Nature of the data set: Antiproliferative activity against human normal (non-senescent) A549 cells assessed as reduction in cell viability incubated for 72 hrs by CCK-8 assay. As to conditions: A549, 72 h. Type of data set: functional, cell-based.
For data set [14], the target named is T2, Bromodomain-containing protein 4. Nature of the data set: Induction of BRD4 degradation in etoposide-induced human senescent A549 cells pretreated with etoposide for 3 days followed by compound administration and measured after 15 mins by SA-beta-Gal staining assay. The format is cell-based.
Data set [15] relates to A549. Nature of the data set: Induction of apoptosis in human senescent A549 cells assessed as necrotic cells at 1 uM incubated for 24 hrs by FITC/PI staining based flow cytometry analysis (reference value: 0.15%). The format is functional.
Data set [16] concerns A549. In words: Effect on ARGAL level in etoposide-induced human senescent A549 cells at 50 nM incubated for 16 hrs by Proteomic analysis. The format is functional, cell-based.
Data set [17] has as its target T2, Bromodomain-containing protein 4. In words: Induction of BRD4 degradation in etoposide-induced human senescent U87 cells by SA-beta-Gal staining assay. Type of data set: cell-based.
For data set [18] the target is unchanged. In words: Induction of BRD4 degradation in human U87 cells by SA-beta-Gal staining assay. The format is cell-based.
Data set [19] deals with A549. Nature of the data set: Antitumor activity against human A549 cells xenografted in SCID mouse assessed as increase in cleaved caspase-3 level in tumor at 20 mg/kg, sc administered daily for 19 days in presence of etoposide by IHC analysis. Type of data set: functional, organism-based. As to conditions: time 19.0 day.
Data set [20] addresses T2, Bromodomain-containing protein 4. Nature of the data set: Induction of BRD4 degradation in etoposide-induced human senescent A549 cells incubated for 16 hrs by Western blot analysis. Type of data set: cell-based.
The subject of data set [21] is A549. In words: Antitumor activity against human A549 cells xenografted in SCID mouse assessed as tumor growth inhibition at 20 mg/kg, sc administered daily for 19 days. Type of data set: functional. As to conditions: A549, 456 h, time 19 day, read-out: TGI.
Data set [22] deals with A549. In words: Induction of apoptosis in human normal (non-senescent) A549 cells assessed as viable cells at 1 uM incubated for 24 hrs by FITC/PI staining based flow cytometry analysis (reference value: 94.6%). As to conditions: read-out: Activity. Type of data set: functional.
Data set [23] relates to A549. Nature of the data set: Antitumor activity against human A549 cells xenografted in SCID mouse assessed as reduction in BRD4 level in tumor at 20 mg/kg, sc administered daily for 19 days by IHC analysis. The format is functional, organism-based. As to conditions: time 19.0 day.
The nature of data set [24]: Stability of the compound in fetal bovine serum incubated for 24 hrs by Real-tie ultrafast liquid chromatography analysis. Type of data set: ADME, cell-free, Bos taurus. Particulars: cattle.
For data set [25], the target named is T2, Bromodomain-containing protein 4. Nature of the data set: Induction of BRD4 degradation in etoposide-induced human senescent A549 cells at 100 nM pretreated with etoposide for 3 days followed by compound administration and measured after 15 mins by SA-beta-Gal staining assay. The format is cell-based.
For data set [26], the system named is A549. In words: Antiproliferative activity against human senescent A549 cells assessed as reduction in cell viability incubated for 72 hrs by CCK-8 assay. The format is functional, cell-based. As to conditions: A549, 72 h.
Data set [27] concerns A549. Nature of the data set: Induction of apoptosis in human senescent A549 cells assessed as late apoptotic cells at 1 uM incubated for 24 hrs by FITC/PI staining based flow cytometry analysis (reference value: 12.2%). The format is functional.
The subject of data set [28] is A549. In words: Induction of apoptosis in human normal (non-senescent) A549 cells assessed as late apoptotic cells at 1 uM incubated for 24 hrs by FITC/PI staining based flow cytometry analysis (reference value: 1.97%). Type of data set: functional.
Data set [29] is described as follows: Stability of the compound assessed as porcine liver esterase-mediated hydrolysis measured at 16 hrs by Real-time ultrafast liquid chromatography analysis. The format is ADME, Sus scrofa. Particulars: pig, isolated protein.
For data set [30], the system named is A549. In words: Antitumor activity against human A549 cells xenografted in SCID mouse assessed as decrease in p21 level in tumor at 20 mg/kg, sc administered daily for 19 days in presence of etoposide by IHC analysis. Type of data set: functional, organism-based. As to conditions: time 19.0 day.
In data set [31] the test system is A549. Nature of the data set: Induction of apoptosis in human senescent A549 cells assessed as early apoptotic cells at 1 uM incubated for 24 hrs by FITC/PI staining based flow cytometry analysis (reference value: 0.68%). Type of data set: functional.
Data set [32] in a line: Toxicity in SCID mouse xenografted with human A549 cells change in body weight at 20 mg/kg, sc administered daily for 19 days. Type of data set: organism-based. As to conditions: in vivo, 456 h, time 19 day.
Data set [33] deals with A549. In words: Senolytic index, ratio of IC50 for antiproliferative activity against human normal (non-senescent) A549 cells assessed as reduction in cell viability to IC50 for antiproliferative activity against human senescent A549 cells assessed as reduction in cell viability. The format is functional.
The target of data set [34] is T2, Bromodomain-containing protein 4. In words: Induction of BRD4 degradation in human A549 cells at 50 nM incubated for 16 hrs in presence of MG-132 by Western blot analysis. Type of data set: cell-based.
In data set [35] the test system is A549. Nature of the data set: Induction of apoptosis in human senescent A549 cells assessed as viable cells at 1 uM incubated for 24 hrs by FITC/PI staining based flow cytometry analysis (reference value: 86.9%). The format is functional. Particulars: read-out: Activity.
The test system of data set [36] is A549. Nature of the data set: Effect on BTBD8 level in etoposide-induced human senescent A549 cells at 50 nM incubated for 16 hrs by Proteomic analysis. Type of data set: functional, cell-based.
In data set [37] the target is T2, Bromodomain-containing protein 4. Nature of the data set: Induction of BRD4 degradation in human normal (non-senescent) A549 cells at 50 to 100 nM by SA-beta-Gal staining assay. Particulars: dose 50-100 nM. The format is cell-based.

T1 sequence (P06748 whole entry partner): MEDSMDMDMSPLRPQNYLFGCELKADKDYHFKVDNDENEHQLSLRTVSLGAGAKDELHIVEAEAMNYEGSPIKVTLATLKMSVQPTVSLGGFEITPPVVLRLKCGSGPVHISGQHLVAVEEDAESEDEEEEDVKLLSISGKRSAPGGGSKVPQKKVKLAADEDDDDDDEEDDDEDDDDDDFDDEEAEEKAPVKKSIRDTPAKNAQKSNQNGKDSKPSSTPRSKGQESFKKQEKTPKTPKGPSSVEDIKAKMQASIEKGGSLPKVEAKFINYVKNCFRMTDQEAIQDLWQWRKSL
T1 sequence (Q9UM73 19-1620 limits assumed): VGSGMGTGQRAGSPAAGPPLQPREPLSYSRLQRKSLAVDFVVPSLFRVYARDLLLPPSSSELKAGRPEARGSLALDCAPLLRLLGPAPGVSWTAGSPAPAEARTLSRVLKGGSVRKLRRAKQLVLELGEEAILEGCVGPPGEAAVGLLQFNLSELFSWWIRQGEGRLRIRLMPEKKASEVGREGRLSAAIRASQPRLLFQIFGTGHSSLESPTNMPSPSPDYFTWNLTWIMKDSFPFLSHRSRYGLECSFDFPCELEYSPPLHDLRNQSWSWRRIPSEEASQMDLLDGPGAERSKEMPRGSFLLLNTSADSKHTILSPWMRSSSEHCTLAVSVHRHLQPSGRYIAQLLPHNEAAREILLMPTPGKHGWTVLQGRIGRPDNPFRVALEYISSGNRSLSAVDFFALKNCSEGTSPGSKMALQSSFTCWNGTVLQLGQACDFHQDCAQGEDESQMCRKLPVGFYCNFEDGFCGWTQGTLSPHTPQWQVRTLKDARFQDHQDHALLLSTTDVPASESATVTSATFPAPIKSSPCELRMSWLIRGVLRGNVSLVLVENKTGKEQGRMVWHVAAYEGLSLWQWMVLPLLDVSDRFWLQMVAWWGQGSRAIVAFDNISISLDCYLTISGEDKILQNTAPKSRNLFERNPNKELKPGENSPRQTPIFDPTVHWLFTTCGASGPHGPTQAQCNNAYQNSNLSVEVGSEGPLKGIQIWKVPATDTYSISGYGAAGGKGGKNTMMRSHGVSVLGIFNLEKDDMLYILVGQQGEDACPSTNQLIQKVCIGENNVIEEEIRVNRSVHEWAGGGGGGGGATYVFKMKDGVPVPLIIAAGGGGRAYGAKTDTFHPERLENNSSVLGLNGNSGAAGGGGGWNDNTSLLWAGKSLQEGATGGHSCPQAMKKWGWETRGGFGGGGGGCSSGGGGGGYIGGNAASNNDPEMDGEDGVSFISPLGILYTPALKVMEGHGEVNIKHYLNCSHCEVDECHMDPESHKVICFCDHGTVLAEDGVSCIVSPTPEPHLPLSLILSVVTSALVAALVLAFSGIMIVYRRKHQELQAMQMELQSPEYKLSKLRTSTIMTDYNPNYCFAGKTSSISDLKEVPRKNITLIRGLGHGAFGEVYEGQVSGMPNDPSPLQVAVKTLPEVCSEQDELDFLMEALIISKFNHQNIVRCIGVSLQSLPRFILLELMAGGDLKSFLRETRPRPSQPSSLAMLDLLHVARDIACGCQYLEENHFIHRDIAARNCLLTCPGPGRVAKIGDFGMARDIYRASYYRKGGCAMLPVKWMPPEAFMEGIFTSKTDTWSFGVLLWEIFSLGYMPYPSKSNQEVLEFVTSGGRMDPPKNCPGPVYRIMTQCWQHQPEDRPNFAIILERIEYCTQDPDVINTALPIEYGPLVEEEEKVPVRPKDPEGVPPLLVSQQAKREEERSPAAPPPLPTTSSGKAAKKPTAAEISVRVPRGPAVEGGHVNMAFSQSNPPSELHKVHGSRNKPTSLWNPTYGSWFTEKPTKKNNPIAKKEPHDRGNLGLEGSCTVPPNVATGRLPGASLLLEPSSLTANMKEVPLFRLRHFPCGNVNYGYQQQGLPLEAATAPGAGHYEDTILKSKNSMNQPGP

`CC(=O)OC[C@H]1O[C@@H](Oc2ccc(COC(=O)O[C@@H]3C[C@@H](C(=O)N[C@@H](C)c4ccc(-c5scnc5C)cc4)N(C(=O)[C@@H](NC(=O)CCCC(=O)N4CCC(c5cc(OC(C)C)c(Nc6ncc(Cl)c(Nc7ccccc7S(=O)(=O)C(C)C)n6)cc5C)CC4)C(C)(C)C)C3)cc2)[C@H](OC(C)=O)[C@@H](OC(C)=O)[C@H]1OC(C)=O`: the IC50 in data set [1] turned out to be 2160 nM; in [4], 455 nM. Further, the outcome in data set [2] was inactive. The outcome in data set [3] was Active. Further, the “Ratio IC50” value in [5] came to 4.75.

For `CC(=O)OC[C@H]1O[C@@H](Oc2ccc(COC(=O)O[C@@H]3C[C@@H](C(=O)N[C@@H](C)c4ccc(-c5scnc5C)cc4)N(C(=O)[C@@H](NC(=O)COCCCOCCNC(=O)C[C@@H]4N=C(c5ccc(Cl)cc5)c5c(sc(C)c5C)-n5c(C)nnc54)C(C)(C)C)C3)cc2)[C@H](OC(C)=O)[C@@H](OC(C)=O)[C@H]1OC(C)=O`, the TGI result in data set [6] is “Active”. The result in data set [7], in [8], in [9], in [11], in data set [14] and in data set [16] was Active. The result in [17], in data set [18], in [19], in [23], in [25] and in [30] was Active. In addition, the outcome in data set [34] and in data set [36] was Active. The Activity in [10] was found to be 0.68%; in data set [12] it was 8.07%; in data set [15], 0.1%; in data set [27], 14.8%; in [28], 4.72%; in [31] it was 16.7%. In addition, in data set [32], the Activity entry was “Non-Toxic”. Moreover, the IC50 was 3290 nM in data set [13] and 354 nM in [26]. The 50% degradation concentration (DC50) in data set [20] is 18.3 nM. Further, in data set [21], the inhibition in vivo at 20 mg/kg is 80%. The viability at 1 µM in [22] was found to be 86.5%; in data set [35], 68.3%. Besides, the Stability result in [24] and in data set [29] was “Stable” each time. Moreover, in data set [33], the “Ratio IC50” value amounted to 5.17.

On to `Cc1ncsc1-c1ccc([C@H](C)NC(=O)[C@@H]2C[C@@H](O)CN2C(=O)[C@@H](NC(=O)COCCCOCCNC(=O)C[C@@H]2N=C(c3ccc(Cl)cc3)c3c(sc(C)c3C)-n3c(C)nnc32)C(C)(C)C)cc1`, for which the Activity in [10] is given as 0.98%; in data set [12], 20.1%; in data set [15], 0.09%; in [27], 14.2%; in [28], 6.76%; in [31] it was 17%. In addition, in data set [32], the Activity entry is given as “Non-Toxic”. For the same molecule, the IC50 in data set [13] came to 640 nM; in data set [26], 603 nM. Moreover, the outcome in [14], in data set [37] and in [34] was Active. In data set [21], the inhibition in vivo at 20 mg/kg worked out at 74%. Further, the viability at 1 µM came out at 72.2% in [22] and 68.7% in [35]. Also, in data set [33], the “Ratio IC50” value worked out at 0.59.

`Cc1cc(Nc2ncc(Cl)c(Nc3ccccc3S(=O)(=O)C(C)C)n2)c(OC(C)C)cc1C1CCN(C(=O)CCCC(=O)N[C@H](C(=O)N2C[C@H](O)C[C@H]2C(=O)N[C@@H](C)c2ccc(-c3scnc3C)cc2)C(C)(C)C)CC1`: the concentration for half-maximal inhibition (IC50) is 369 nM in [1] and 232 nM in [4]. The result in data set [3] was Active. In addition, the “Ratio IC50” value in data set [5] came to 1.59.
